Laboratory results taken from article PMC5358917, “Mechanism of H2S Oxidation by the Dissimilatory Perchlorate-Reducing Microorganism Azospira suillum PS” (mBio, 2017).

Legend:
[1] = target: T1, PcrAB (perchlorate reductase) (Azospira oryzae, UniProt G8QM55); assay: steady-state turnover, Cline assay of sulfide; type: biochemical; details: H2S as electron donor; 0.2 uM PcrAB; anaerobic
T1 construct: gene Dsui_0149; native PcrAB complex purified anoxically from wild-type PS cells, three-column protocol; periplasmic enzyme; with Perchlorate reductase subunit beta
T1 sequence (G8QM55 29-927): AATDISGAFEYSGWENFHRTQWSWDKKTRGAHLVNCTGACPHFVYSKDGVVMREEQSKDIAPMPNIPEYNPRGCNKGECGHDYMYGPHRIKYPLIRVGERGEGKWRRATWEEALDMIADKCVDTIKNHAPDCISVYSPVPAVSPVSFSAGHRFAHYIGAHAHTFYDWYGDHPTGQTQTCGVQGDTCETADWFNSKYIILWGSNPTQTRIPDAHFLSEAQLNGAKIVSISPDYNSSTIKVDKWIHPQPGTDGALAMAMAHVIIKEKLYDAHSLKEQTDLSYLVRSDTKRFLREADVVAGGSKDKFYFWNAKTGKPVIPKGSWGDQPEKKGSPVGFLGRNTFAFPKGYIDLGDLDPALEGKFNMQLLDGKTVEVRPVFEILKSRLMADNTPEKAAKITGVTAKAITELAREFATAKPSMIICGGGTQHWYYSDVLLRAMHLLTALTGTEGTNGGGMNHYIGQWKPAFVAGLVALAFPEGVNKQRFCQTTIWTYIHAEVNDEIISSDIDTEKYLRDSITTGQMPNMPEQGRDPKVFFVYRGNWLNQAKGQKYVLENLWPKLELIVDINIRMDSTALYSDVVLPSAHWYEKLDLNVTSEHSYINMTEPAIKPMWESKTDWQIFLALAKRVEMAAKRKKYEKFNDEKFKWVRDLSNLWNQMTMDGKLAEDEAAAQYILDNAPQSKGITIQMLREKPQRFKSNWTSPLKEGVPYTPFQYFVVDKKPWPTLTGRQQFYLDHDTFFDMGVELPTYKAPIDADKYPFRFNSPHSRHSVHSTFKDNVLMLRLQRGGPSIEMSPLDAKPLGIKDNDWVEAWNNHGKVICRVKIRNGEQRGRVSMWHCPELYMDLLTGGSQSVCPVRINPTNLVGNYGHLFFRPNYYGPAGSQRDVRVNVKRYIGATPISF
T1 sequence (G8QM54 1-333 partner): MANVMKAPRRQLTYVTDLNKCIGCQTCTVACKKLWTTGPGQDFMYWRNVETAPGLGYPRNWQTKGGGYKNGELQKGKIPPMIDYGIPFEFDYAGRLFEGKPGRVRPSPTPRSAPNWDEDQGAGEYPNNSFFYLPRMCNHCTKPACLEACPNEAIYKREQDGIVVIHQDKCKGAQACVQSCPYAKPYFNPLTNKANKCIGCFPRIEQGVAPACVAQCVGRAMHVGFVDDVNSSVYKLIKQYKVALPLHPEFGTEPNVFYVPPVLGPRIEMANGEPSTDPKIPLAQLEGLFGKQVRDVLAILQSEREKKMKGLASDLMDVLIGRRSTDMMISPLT

[2] = target: T1, PcrAB (perchlorate reductase); assay: steady-state turnover, ion chromatography of perchlorate and Cline assay of sulfide; type: biochemical; details: H2S as electron donor; 0.2 uM PcrAB; anaerobic

Row | SMILES | steady-state turnover, Cline assay of sulfide [1] | steady-state turnover, ion chromatography of perchlorate and Cline assay of sulf [2]
1 | O=[N+]([O-])O [nitrate] | purified PcrAB also mediated H2S oxidation coupled to nitrate reduction | 
2 | [O-][Cl+3]([O-])([O-])O [perchlorate] |  | Our results indicated that PcrAB independently mediated PSOX
